Results as given in publication PMC8373983, “Effect of salinity on the zinc(II) binding efficiency of siderophore functional groups and implications for salinity tolerance mechanisms in barley” (Scientific Reports, 2021).
Values joined by “and” are separate entries in the source; they are usually repeats but may differ in a detail not shown here. Equal entries are not always repeated. Marks after values point to notes of the source that are not given here.

How the values were obtained:
[1] = Zinc(II)-ligand stability constants, potentiometric titration in NaCl; assay type: binding; settings: for decrease in the 1:1 zinc(II) stability constant / decrease of the 1:1 zinc(II) stability constant: between 0.00 and 1.00 M NaCl
Procedure: (§1) Potentiometric measurements were carried out at T = 298.1 ± 0.1 K in thermostatted cells. The setup consisted of a Metrohm model 888 Titrando apparatus controlled by Metrohm TiAMO 1.2 software equipped with a combined gel electrode (VWR model 662 1759). Estimated precision was 0.2 mV and 0.003 ml for the electromotive force and titrant volume readings, respectively. All the potentiometric titrations were carried out under magnetic stirring and bubbling purified presaturated N2 through the solution to exclude O2 and CO2.
(§2) A 30 ml solution containing each ligand ([L] = 5 – 10 mM), NaCl and HCl was titrated with standard NaOH solutions. For the zinc(II)/ligand systems, the titrant solutions consisted of different amounts of ligand ([L] = 5 − 10 mM), zinc(II) ([Zn] = 0.5—5 mM) and a suitable amount of HCl and NaCl. All the measurements were carried out with an excess of the ligand, with respect to zinc(II) and at different zinc(II):ligand molar ratios. The selection of ratios investigated was determined by simulating titrations using Hyperquad Simulation and Speciation computer software (HySS)[41]. [Zn] and [L] were negligible compared to the background electrolyte concentrations. […] To account for the influence of zinc(II) hydrolysis in the zinc(II)/ligand systems, zinc(II) titrations were carried out separately at each ionic strength to determine the hydroxide constants so that these constants could be included in the equilibrium model used to refine the titration data. In these titrations, the zinc(II) concentration in the analyte solution was 0.7 mM.
(§3) Before each experiment, independent titrations of strong acid solutions with standard base were carried out under the same medium and ionic strength conditions as the systems to be investigated, with the aim of determining the electrode potential (E^0’) using GLEE software. In this way, the pH scale used was the […], pH = -log [H]^+, where [H]^+ is the free proton concentration. For each titration, approximately 80 to 100 data points were collected. The equilibrium state during titrations was checked by confirming the time required to reach equilibrium.
(§4) The software program Hyperquad was used to determine the equilibrium model and to calculate pKa and stability constants from the potentiometric data set[43]. For each set of pKa constants or zinc(II):ligand ratio studied, at least two repeat titrations were performed. The titration curves for each system were treated as a single set when refining the stability constants. This meant that the refinement procedure was run on both curves at the same time to derive a single set of constants. The error reported on the stability constants is the standard deviation given in the Hyperquad output file. Examples of Hyperquad files for the zinc(II)/PYR system are provided on the Zenodo repository (https://doi.org/10.5281/zenodo.4641710).
(§5) The ionic strength dependence of the stability constants was studied with the modified version of the Extended Debye–Hückel equation[28]. The Monte Carlo method, as described by Hu et al.[43], was used to estimate 95% confidence intervals on the parameters of ionic strength dependence; for each species, predicted stability constants were resampled using an inverse of the cumulative normal distribution function to give sets of simulated data from which the unknown parameters were optimized. An example Excel calculation file for the application of the modified version of the Extended Debye–Hückel equation to the zinc(II)/PYR system (including the calculation of error on parameters of ionic strength dependence) has been uploaded to the Zenodo repository (https://doi.org/10.5281/zenodo.4641710).
(§6) To quantify the improvement of using a direct vs. indirect method for studying ionic strength dependence, the Davies equation (Eq. 3) was applied to the zinc(II)/PYR data. Speciation calculations for a [Zn] = 10^–6 M and [L] = 10^–5 M system at infinite dilution were conducted with the aid of HySS. […]

[2] = Ligand protonation constants, potentiometric titration in NaCl; assay type: physicochemical
Procedure: as §1, §2, §3, §4, §5, §6

[3] = intrinsic, modified Extended Debye–Hückel fit (direct), T = 298.1 K
[4] = parameter of ionic strength dependence, NaCl
[5] = parameter of ionic strength dependence, NaCl, T = 298.1 K
[6] = Davies equation on 0.05 M NaCl data
[7] = Davies equation on 0.15 M NaCl data
[8] = Davies equation on 0.30 M NaCl data
[9] = Davies equation on 0.70 M NaCl data
[10] = Davies equation on 1.00 M NaCl data

For `O=C(O)CO` [GLY, glycolic acid], the “log β, Zn2+ + L = ZnL (1:1)” value ([1]; 0.05 M NaCl, T = 298.1 K) was 2.83±0.02, the “log β, Zn2+ + L = ZnL (1:1)” value ([1]; 0.15 M NaCl, T = 298.1 K) was 2.10±0.01 and the “log β, Zn2+ + L = ZnL (1:1)” value ([1]; 0.30 M NaCl, T = 298.1 K) was 1.93±0.01. For the same compound, the “log β, Zn2+ + L = ZnL (1:1)” value ([1]; 0.70 M NaCl, T = 298.1 K) was 1.25±0.03, the “stability lower than the equivalent 1:1 zinc(II)-PYR structure” value ([1]; 1:1 zinc(II) complex) was “approximately 7 logβ units” and the “log β, Zn2+ + L = ZnL (1:1)” value ([1]; 1.00 M NaCl, T = 298.1 K) was 0.83±0.04. For the same compound, the “decrease in the 1:1 zinc(II) stability constant” value [1] was ~80%, the “decrease of the 1:1 zinc(II) stability constant” value [1] was 2.19 logβ units and the “logβ0, Zn2+ + L = ZnL (1:1)” value [1, 3] was 3.018±0.003. For the same compound, the “C, Zn2+ + L = ZnL (1:1)” value [1, 4] was -1.418±0.006, the “log β, H+ + L = HL” value ([2]; 0.05 M NaCl, T = 298.1 K) was 3.55 ± 0.01 and the “log β, H+ + L = HL” value ([2]; 0.15 M NaCl, T = 298.1 K) was 3.49 ± 0.01. The “log β, H+ + L = HL” value ([2]; 0.30 M NaCl, T = 298.1 K) was 3.54 ± 0.01, the “log β, H+ + L = HL” value ([2]; 0.70 M NaCl, T = 298.1 K) was 3.44 ± 0.01 and the “log β, H+ + L = HL” value ([2]; 1.00 M NaCl, T = 298.1 K) was 3.39 ± 0.01. The “logβ^0, H+ + L = HL” value [2, 3] was 3.750^b and the “C, H+ + L = HL” value [2, 5] was 0.070^b.
For `Oc1ccccc1O` [PYR, pyrocatecholate], the “log β, Zn2+ + 2L = ZnL2” value ([1]; 0.05 M NaCl, T = 298.1 K) was 16.66±0.04, the “log β, Zn2+ + L = ZnL (1:1)” value ([1]; 0.05 M NaCl, T = 298.1 K) was 9.29±0.03 and the “log β, Zn2+ + 2L = ZnL2” value ([1]; 0.15 M NaCl, T = 298.1 K) was 15.93±0.02. The “log β, Zn2+ + L = ZnL (1:1)” value ([1]; 0.15 M NaCl, T = 298.1 K) was 8.89±0.02, the “log β, Zn2+ + 2L = ZnL2” value ([1]; 0.30 M NaCl, T = 298.1 K) was 15.32±0.01 and the “log β, Zn2+ + L = ZnL (1:1)” value ([1]; 0.30 M NaCl, T = 298.1 K) was 8.57±0.01. The “log β, Zn2+ + 2L = ZnL2” value ([1]; 0.70 M NaCl, T = 298.1 K) was 15.09±0.01, the “log β, Zn2+ + L = ZnL (1:1)” value ([1]; 0.70 M NaCl, T = 298.1 K) was 8.50±0.01 and the “log β, Zn2+ + 2L = ZnL2” value ([1]; 1.00 M NaCl, T = 298.1 K) was 14.59±0.01. For the same compound, the “log β, Zn2+ + L = ZnL (1:1)” value ([1]; 1.00 M NaCl, T = 298.1 K) was 8.23±0.01, the “log β0 (indirect), ZnL” value [1, 6] was 9.97±0.03 and 9.97 and the “log β0 (indirect), ZnL22-” value [1, 6] was 16.54±0.04 and 16.54. The “log β0 (indirect), ZnL” value [1, 7] was 9.85±0.02 and 9.85, the “log β0 (indirect), ZnL22-” value [1, 7] was 15.70±0.02 and 15.70 and the “log β0 (indirect), ZnL” value [1, 8] was 9.65±0.01 and 9.65. The “log β0 (indirect), ZnL22-” value [1, 8] was 15.03±0.01 and 15.03, the “log β0 (indirect), ZnL” value [1, 9] was 9.50±0.01 and 9.50 and the “log β0 (indirect), ZnL22-” value [1, 9] was 14.84±0.01 and 14.84. The “log β0 (indirect), ZnL” value [1, 10] was 9.05 ±01 and 9.05, the “log β0 (indirect), ZnL22-” value [1, 10] was 14.42±0.01 and 14.42 and the “decrease in the 1:1 zinc(II) stability constant” value [1] was 20%. The “decrease of the 1:1 zinc(II) stability constant” value [1] was 1.67 logβ units, the “logβ0, Zn2+ + 2L = ZnL2” value [1, 3] was 17.136±0.007 and 17.14±0.007 and 17.14 and the “logβ0, Zn2+ + L = ZnL (1:1)” value [1, 3] was 9.90±0.001 and 9.90. The “C, Zn2+ + 2L = ZnL2” value [1, 4] was -0.924±0.012, the “log β, 2H+ + L = H2L” value ([2]; 0.05 M NaCl, T = 298.1 K) was 21.36 ± 0.07 and the “log β, H+ + L = HL” value ([2]; 0.05 M NaCl, T = 298.1 K) was 12.16 ± 0.03. For the same compound, the “log β, 2H+ + L = H2L” value ([2]; 0.15 M NaCl, T = 298.1 K) was 21.14 ± 0.02, the “log β, H+ + L = HL” value ([2]; 0.15 M NaCl, T = 298.1 K) was 11.97 ± 0.01 and the “log β, 2H+ + L = H2L” value ([2]; 0.30 M NaCl, T = 298.1 K) was 21.06 ± 0.02. The “log β, H+ + L = HL” value ([2]; 0.30 M NaCl, T = 298.1 K) was 11.94 ± .01, the “log β, 2H+ + L = H2L” value ([2]; 0.70 M NaCl, T = 298.1 K) was 21.04 ± 0.02 and the “log β, H+ + L = HL” value ([2]; 0.70 M NaCl, T = 298.1 K) was 11.96 ± 0.01. For the same compound, the “log β, 2H+ + L = H2L” value ([2]; 1.00 M NaCl, T = 298.1 K) was 20.88 ± 0.02, the “log β, H+ + L = HL” value ([2]; 1.00 M NaCl, T = 298.1 K) was 11.79 ± 0.01 and the “log β0 (indirect), H2L” value [2, 6] was 21.61±0.07. The “log β0 (indirect), HL-” value [2, 6] was 12.50±0.03, the “log β0 (indirect), H2L” value [2, 7] was 21.48±0.02 and the “log β0 (indirect), HL-” value [2, 7] was 12.45±0.01. The “log β0 (indirect), H2L” value [2, 8] was 21.45±0.02, the “log β0 (indirect), HL-” value [2, 8] was 12.48±0.01 and the “log β0 (indirect), H2L” value [2, 9] was 21.4±0.02. For the same compound, the “log β0 (indirect), HL-” value [2, 9] was 12.46±0.01, the “log β0 (indirect), H2L” value [2, 10] was 21.18 ±0.02 and the “log β0 (indirect), HL-” value [2, 10] was 12.20±0.01. For the same compound, the “logβ^0, 2H+ + L = H2L” value [2, 3] was 21.87±0.001 and 21.874 ± 0.001, the “logβ^0, H+ + L = HL” value [2, 3] was 12.49 ±0.009 and 12.489 ± 0.009 and the “C, 2H+ + L = H2L” value [2, 5] was 0.296 ± 0.001. The “C, H+ + L = HL” value [2, 5] was 0.183 ± 0.015.
